Experimental data from patent US6908930B2, “4-substituted 7-AZA-indolin-2-ones and their use as protein kinase inhibitors” (Sugen, Inc., priority 1999, dated 2005).
Structures can show the parent of a compound that is named as a salt.

How the values were obtained:
EGFR = target: T1, EGFR (Homo sapiens, UniProt P00533); assay: Assay for modulation of EGFR activity (ELISA); assay type: biochemical; conditions: for IC50: read-out: bio EGFR IC50
T1 construct: A431 […] cell lysate is stored at −80° C; host or cells: A431 cell lysate
T1 sequence (P00533 25-1210): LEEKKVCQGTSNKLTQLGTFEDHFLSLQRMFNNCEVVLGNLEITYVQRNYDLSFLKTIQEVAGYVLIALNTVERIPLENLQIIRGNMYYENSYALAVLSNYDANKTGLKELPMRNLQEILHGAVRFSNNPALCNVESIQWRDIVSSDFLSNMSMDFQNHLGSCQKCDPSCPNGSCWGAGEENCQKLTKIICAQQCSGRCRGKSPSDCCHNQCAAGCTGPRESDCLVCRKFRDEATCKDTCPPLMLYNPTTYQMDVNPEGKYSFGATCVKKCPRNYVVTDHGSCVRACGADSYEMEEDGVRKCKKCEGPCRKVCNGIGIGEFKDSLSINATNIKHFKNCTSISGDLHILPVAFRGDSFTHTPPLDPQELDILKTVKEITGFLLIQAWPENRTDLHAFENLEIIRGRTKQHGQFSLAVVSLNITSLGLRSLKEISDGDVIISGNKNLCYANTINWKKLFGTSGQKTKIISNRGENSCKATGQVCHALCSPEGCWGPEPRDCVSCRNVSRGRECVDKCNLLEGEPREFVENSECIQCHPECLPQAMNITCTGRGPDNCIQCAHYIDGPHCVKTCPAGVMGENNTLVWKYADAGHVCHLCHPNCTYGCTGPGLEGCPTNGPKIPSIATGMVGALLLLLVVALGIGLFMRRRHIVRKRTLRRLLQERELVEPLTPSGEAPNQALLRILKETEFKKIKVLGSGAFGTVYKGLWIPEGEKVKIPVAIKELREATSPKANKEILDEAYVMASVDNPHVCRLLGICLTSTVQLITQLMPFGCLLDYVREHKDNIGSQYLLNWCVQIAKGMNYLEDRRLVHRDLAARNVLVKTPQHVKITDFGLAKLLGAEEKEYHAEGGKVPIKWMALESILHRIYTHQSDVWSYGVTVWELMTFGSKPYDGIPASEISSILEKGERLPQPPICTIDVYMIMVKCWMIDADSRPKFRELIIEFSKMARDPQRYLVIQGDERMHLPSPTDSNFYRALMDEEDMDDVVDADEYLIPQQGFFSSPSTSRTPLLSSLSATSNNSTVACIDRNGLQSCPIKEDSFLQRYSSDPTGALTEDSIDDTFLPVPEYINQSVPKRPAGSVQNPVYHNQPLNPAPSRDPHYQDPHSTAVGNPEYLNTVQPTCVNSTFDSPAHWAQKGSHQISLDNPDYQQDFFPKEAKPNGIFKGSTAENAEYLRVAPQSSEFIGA
Method: Using the following reagents, supplies, and method, the ability of compounds of the invention to modulate the in vitro activity of EGFR can be readily determined in an ELISA.
A431 […] cell lysate is stored at −80° C.
ATP/MnCl2 phosphorylation mix is prepared by adding 300 μL of 1.0 mM ATP and […] of 1M MnCl2 to 9.2 mL of dH2O and mixing. Ten mL of phosphorylation mix is enough for about 6 assay plates. Note that the mixture should be made fresh and kept on ice immediately before use, and that although the preferred ATP is fresh from powder stock, any remaining stock solution of ATP may be frozen at −20° C. in small aliquots to be used at a later time.
(§1) Coat Corning 96 well ELISA plates with 0.5 μg per well with SUMO1 in a volume of 100 μL PBS overnight, at 4° C. Remove unbound SUMO1 from wells by inverting plate to remove liquid. Wash 1× with distilled H2O by filling wells. Pat the plate on a paper towel to remove excess liquid.
Add 150 μL of Blocking Buffer to each well. Incubate for 30 minutes at room temperature, with shaking. Wash plate 3× with deionized water, then once with TBST. Pat plate on a paper towel to remove excess liquid and bubbles.
Dilute lysate in PBS (7 μg lysate/[…]) and add 100 μL of diluted lysate to each well. Shake at room temperature for 60 minutes. Wash 1× with distilled H2O by filling wells. Pat the plate on a paper towel to remove excess liquid.
Add 120 μL TBST to ELISA plate containing captured EGFR.
Dilute drugs/extracts 1:10 (unless specified otherwise) in TBST in 96-well polypropylene plates. (i.e., 10 μL compound+90 μL TBST). Add 13.5 μL diluted drugs/extracts to ELISA plate. […] Incubate for 30 minutes while shaking at room temperature.
Approximately 150 μL final volume in well with 3 uM ATP/5 mM MnCl2 final concentration in well. Incubate 5 minutes while shaking. Note that this is a timed event. It is critical that ATP/MnCl2 phosphorylates the receptor for only 5 minutes. It is best to add the ATP/MnCl2 with an automated 96 place pipettor workstation, then 5 minutes later stop the reaction with EDTA using the same workstation. Alternatively, addition can be performed using a 12 channel pipettor 1 row at a time, leaving 20 seconds between each row so that the reaction may be stopped with EDTA exactly 5 minutes later (this depends on the number of plates being phosphorylated in one batch). Shake between each addition.
[…] This is done using either the same work station as above, or the same timing method employed with the 12 channel pipettor. After the EDTA has been added, shake for 1 minute. Wash 4× with deionized water, twice with TBST.
Add 100 μL per well of anti-phosphotyrosine (1:3000 dilution in TBST). Incubate 30-45 minutes at room temperature, with shaking. Wash 1× with distilled H2O by filling wells. Pat the plate on a paper towel to remove excess liquid.
Incubate 30 minutes at room temperature, with shaking. Wash 1× with distilled H2O by filling wells. Pat the plate on a paper towel to remove excess liquid.
Add 100 μL of ABTS/H2O2 solution to each well. Incubate 5 to 10 minutes while shaking. Remove any bubbles. If necessary stop reaction with the addition of 100 μL of 0.2M HCl per well.
(§2) Read assay on Dynatech MR7000 ELISA reader.

PDGFR = target: T2, PDGFR (Homo sapiens, UniProt P09619); assay: Assay for modulation of PDGFR activity (ELISA); assay type: biochemical; conditions: for IC50: read-out: bio PDGFR IC50
T2 construct: expressed in transfected cells; host or cells: NIH3T3
T2 sequence (P09619 33-1106, species assumed): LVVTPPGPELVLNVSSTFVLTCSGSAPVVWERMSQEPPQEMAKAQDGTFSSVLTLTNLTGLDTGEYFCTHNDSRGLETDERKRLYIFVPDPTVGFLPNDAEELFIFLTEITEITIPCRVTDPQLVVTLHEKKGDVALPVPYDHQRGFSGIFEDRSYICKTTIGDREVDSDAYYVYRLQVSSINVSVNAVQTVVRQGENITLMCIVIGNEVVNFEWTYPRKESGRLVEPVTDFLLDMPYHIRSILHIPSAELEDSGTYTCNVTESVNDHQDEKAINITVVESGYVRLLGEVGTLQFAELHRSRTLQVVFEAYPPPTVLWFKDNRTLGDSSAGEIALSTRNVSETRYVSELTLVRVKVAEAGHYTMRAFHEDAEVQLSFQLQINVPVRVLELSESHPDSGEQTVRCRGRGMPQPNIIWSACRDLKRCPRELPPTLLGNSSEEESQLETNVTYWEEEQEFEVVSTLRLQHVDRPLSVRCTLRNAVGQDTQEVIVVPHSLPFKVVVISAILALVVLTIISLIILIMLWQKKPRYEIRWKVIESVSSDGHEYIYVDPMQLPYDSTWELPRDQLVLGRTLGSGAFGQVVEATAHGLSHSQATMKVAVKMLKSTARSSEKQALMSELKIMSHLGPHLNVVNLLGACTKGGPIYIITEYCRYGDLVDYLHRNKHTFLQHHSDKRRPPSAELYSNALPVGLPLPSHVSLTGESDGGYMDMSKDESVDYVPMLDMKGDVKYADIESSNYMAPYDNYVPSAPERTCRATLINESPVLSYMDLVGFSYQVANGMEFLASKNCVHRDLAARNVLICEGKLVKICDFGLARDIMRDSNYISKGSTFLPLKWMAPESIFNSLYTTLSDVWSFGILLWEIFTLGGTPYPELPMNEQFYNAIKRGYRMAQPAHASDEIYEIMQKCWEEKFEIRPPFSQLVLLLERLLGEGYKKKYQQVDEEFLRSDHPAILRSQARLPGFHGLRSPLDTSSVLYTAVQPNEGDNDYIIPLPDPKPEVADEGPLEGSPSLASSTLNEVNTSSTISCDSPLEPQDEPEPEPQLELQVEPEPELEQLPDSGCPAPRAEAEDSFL
Method: Using the following reagents, supplies, and methods, the ability of the compounds of the invention to modulate the in vitro activity of the PDGFR can be readily determined in an enzyme-linked immunosorbent assay (ELISA).
Monoclonal anti-PDGFR antibody (28D4C10) is stored at −20° C. in 50 mL tubes prior to use.
Lysates from PDGFR-β expressing NIH3T3 cells are obtained and stored at −80° C. in 1 mL aliquots. PDGFR-β expression in eukaryotic cells is well known in the art. Lysates are prepared by the following method. Place carrier dishes in ice trays, and after cooling, remove the media and replace with ice cold PBS. Remove the PBS and repeat. […] Take up lysate with a pipettor and add to a 30 mL centrifuge tube on ice. Vortex the tubes for 30-60 seconds and then centrifuge for 10 minutes at 7000 rpm in a J-20 rotor which has been precooled to below 0° C. Recover the supernatants and combine them in a 250 mL tube and place on ice. Perform protein determination to measure the total quantity of protein per mL of solution. Aliquot the lysate into 1 mL fractions and store at −80° C.
as §1, with “28D4C10 antibody” for “with SUMO1”, “μl” for “μL”, “and remove” for “Remove”, “antibody, 28D4C10,” for “SUMO1”
Add 150 μL of Blocking Buffer to each well. Incubate for 30 minutes at room temperature, with shaking and wash plate 3× with deionized water, then once with TBST. Pat plate on a paper towel to remove excess liquid and bubbles
Dilute lysate in PBS (10 mg lysate/100 μL PBS). Add 100 μL of diluted lysate to each well. Shake at room temperature for 60 min. Wash plate 3× with deionized water, then once with TBST. Pat plate on a paper towel to remove excess liquid and bubbles.
Add 80 μL Kinase Buffer to ELISA plate containing captured PDGFR.
Dilute drugs/extracts 1:10 (unless specified otherwise) in TBS+10% DMSO in 96-well polypropylene plates. (i.e., 10 μL compound+90 μL (TBS+10% DMSO)). Add 10 μL diluted drugs/extracts to ELISA plate. […] Incubate for 30 minutes while shaking at room temperature.
After 30 minutes stop reaction with addition of 10 μL of 200 mM EDTA pH 8.0 for 20 mM final in well. Wash 4× with deionized water, twice with TBST.
Incubate 30-45 minutes at room temperature, with shaking. Wash plate 3× with deionized water, then once with TBST. Pat plate on a paper towel to remove excess liquid and bubbles.
Incubate 30 minutes at room temperature with shaking. Wash plate 3× with deionized water, then once with TBST. Pat plate on a paper towel to remove excess liquid and bubbles.
Add 100 μL of ABTS/H2O2 solution to each well. Incubate 10 to 30 minutes while shaking. Remove any bubbles. If necessary stop reaction with the addition of 100 μL of 0.2M HCl per well
as §2

| Structure (SMILES) | inhibition of EGFR (in words) (EGFR; hydrochloride salt) | IC50 (EGFR) [µM] | IC50 (PDGFR) [µM] | effect on the activity of PDGFR (in words) (PDGFR; hydrochloride salt) |
| --- | --- | --- | --- | --- |
| Cc1cc(C(=O)NCCN2CCOCC2)[nH]c1C=C1C(=O)Nc2ncnc(Nc3ccc4c(ccn4Cc4ccccc4)c3)c21.Cl [Formula 6, 5-[4-(1-BENZYL-1H-INDOL-5-YLAMINO)-6-OXO-6,7-DIHYDRO-PYRROLO[2,3-D]PYRIMIDIN-5-YLIDENEMETHYL]-4-METHYL-1H-PYRROLE-2-CARBOXYLIC ACID (2-MORPHOLIN-4-YL-ETHYL)-AMIDE HYDROCHLORIDE] | inhibits EGFR at very low concentrations | 0.001 | > 100 | relatively little effect on the activity of PDGFR |
| Cc1nc[nH]c1C=C1C(=O)Nc2ncnc(N3CCN(C)CC3)c21 [Formula 11] |  | > 20 | 28.1 |  |
| Cc1cc(C(=O)NCCN2CCOCC2)[nH]c1C=C1C(=O)Nc2ncnc(Nc3ccc(F)c(Cl)c3)c21 [Formula 4, 5-[4-(3-CHLORO-4-FLUORO-PHENYLAMINO)-6-OXO-6,7-DIHYDRO-PYRROLO[2,3-D]PYRIMIDIN-5-YLIDENEMETHYL]-4-METHYL-1H-PYRROLE-2-CARBOXYLIC ACID (2-MORPHOLIN-4-YL-ETHYL)-AMIDE HYDROCHLORIDE] |  |  | > 100 |  |
| O=C1Nc2ncnc(N3CCCCC3)c2C1=Cc1ccc(C(=O)NCCN2CCOCC2)[nH]1 [Formula 5, 5-(6-OXO-4-PIPERIDIN-1-YL-6,7-DIHYDRO-PYRROLO[2,3-D]PYRIMIDIN-5-YLIDENEMETHYL)-1H-PYRROLE-2-CARBOXYLIC ACID (2-MORPHOLIN-4-YL-ETHYL)-AMIDE] |  | > 20 | > 100 |  |
| O=C1Nc2ncnc(N3CCOCC3)c2C1=Cc1ccc(C(=O)NCCN2CCOCC2)[nH]1 [Formula 13, 5-(4-MORPHOLIN-4-YL-6-OXO-6,7-DIHYDRO-PYRROLO[2,3-D]PYRIMIDIN-5-YLIDENEMETHYL)-1H-PYRROLE-2-CARBOXYLIC ACID (2-MORPHOLIN-4-YL-ETHYL)-AMIDE] |  | 19.1 | > 100 |  |
| C#Cc1cccc(Nc2ncnc3c2C(=Cc2ccc(C(=O)NCCN4CCOCC4)[nH]2)C(=O)N3)c1 [Formula 16, 5-[4-(3-ETHYNYL-PHENYLAMINO)-6-OXO-6,7-DIHYDRO-PYRROLO[2,3-D]PYRIMIDIN-5-YLIDENEMETHYL]-1H-PYRROLE-2-CARBOXYLIC ACID (2-MORPHOLIN-4-YL-ETHYL)-AMIDE HYDROCHLORIDE] |  | 0.1 | > 20 |  |
| Cc1[nH]c(C=C2C(=O)Nc3ncnc(Nc4ccc(F)c(Cl)c4)c32)c(C)c1CCCN1CCOCC1 [Formula 7, 4-(3-CHLORO-4-FLUORO-PHENYLAMINO)-5-[3,5-DIMETHYL-4-(3-MORPHOLIN-4-YL-PROPYL)-1H-PYRROL-2-YLMETHYLENE]-5,7-DIHYDRO-PYRROLO[2,3-D]PYRIMIDIN-6-ONE HYDROCHLORIDE] |  | 0.16 | 86 |  |
| Cc1cc(C(=O)NCCN2CCOCC2)[nH]c1C=C1C(=O)Nc2nccc(Nc3ccc(F)c(Cl)c3)c21 [Formula 3, 5-[4-(3-CHLORO-4-FLUORO-PHENYLAMINO)-2-OXO-1,2-DIHYDRO-PYRROLO[2,3-B]PYRIDIN-3-YLIDENEMETHYL]-4-METHYL-1H-PYRROLE-2-CARBOXYLIC ACID (2-MORPHOLIN-4-YL-ETHYL)-AMIDE] |  | 0.51 | > 100 |  |
| O=C1Nc2ncnc(Nc3ccc(F)c(Cl)c3)c2C1=Cc1ccc(C(=O)NCCN2CCOCC2)[nH]1 [Formula 15, 5-[4-(3-CHLORO-4-FLUORO-PHENYLAMINO)-6-OXO-6,7-DIHYDRO-PYRROLO[2,3-D]PYRIMIDIN-5-YLIDENEMETHYL]-1H-PYRROLE-2-CARBOXYLIC ACID (2-MORPHOLIN-4-YL-ETHYL)-AMIDE] |  | 0.02 | > 100 |  |
| Cc1nc[nH]c1C=C1C(=O)Nc2ncnc(N3CCOCC3)c21 [Formula 14] |  | > 20 | > 100 |  |
| Cc1cc(C)c(C=C2C(=O)Nc3ncnc(Nc4ccc(F)c(Cl)c4)c32)[nH]1 [Formula 9] |  | 0.04 | > 100 |  |
| Cc1nc[nH]c1C=C1C(=O)Nc2ncnc(Nc3ccc(F)c(Cl)c3)c21 [Formula 8] |  | 0.06 | 16.4 |  |
| C#Cc1cccc(Nc2ncnc3c2C(=Cc2[nH]c(C(=O)NCCN4CCOCC4)cc2C)C(=O)N3)c1 [Formula 17, 5-[4-(3-ETHYNYL-PHENYLAMINO)-6-OXO-6,7-DIHYDRO-PYRROLO[2,3-D]PYRIMIDIN-5-YLIDENEMETHYL]-4-METHYL-1H-PYRROLE-2-CARBOXYLIC ACID (2-MORPHOLIN-4-YL-ETHYL)-AMIDE] |  | 0.02 | > 20 |  |
| O=C1Nc2ncnc(Nc3ccc4c(ccn4Cc4ccccc4)c3)c2C1=Cc1ccc(C(=O)NCCN2CCOCC2)[nH]1 [Formula 12, 5-[4-(1-BENZYL-1H-INDOL-5-YLAMINO)-6-OXO-6,7-DIHYDRO-PYRROLO[2,3-D]PYRIMIDIN-5-YLIDENEMETHYL]-1H-PYRROLE-2-CARBOXYLIC ACID (2-MORPHOLIN-4-YL-ETHYL)-AMIDE HYDROCHLORIDE] |  | 0.004 | > 100 |  |

Second part, led by results:

| inhibition of EGFR (in words) (EGFR; hydrochloride salt) | IC50 (EGFR) [µM] | IC50 (PDGFR) [µM] | Structure (SMILES) | effect on the activity of PDGFR (in words) (PDGFR; hydrochloride salt) |
| --- | --- | --- | --- | --- |
|  | 0.15 | > 20 | CC(C)c1cc(CCC(=O)O)c(/C=C2\C(=O)Nc3ncnc(Nc4ccc(F)c(Cl)c4)c32)[nH]1 [Formula 27] |  |
|  | 0.18 | 15.3 | C#Cc1cccc(Nc2ncnc3c2C(=Cc2[nH]c(C)c(CCCN4CCOCC4)c2C)C(=O)N3)c1 [Formula 18] |  |
|  | 0.21 | > 20 | Cc1c(C(=O)N2CCOCC2)c[nH]c1/C=C1\C(=O)Nc2ncnc(Nc3ccc(F)c(Cl)c3)c21 [Formula 31] |  |
|  | 0.24 | > 20 | Cc1cc(C=C2C(=O)Nc3ncnc(Nc4ccc(F)c(Cl)c4)c32)[nH]c1C(=O)N1CCOCC1 [Formula 37] |  |
|  | 17.4 | > 20 | Cc1cc(C(=O)N2CCN(C)CC2)[nH]c1/C=C1\C(=O)N(C)c2ncnc(Nc3ccc(F)c(Cl)c3)c21 [Formula 36] |  |
|  | > 20 | > 20 | Cc1cc(C(=O)N2CCOCC2)[nH]c1/C=C1\C(=O)N(C)c2ncnc(Nc3ccc(F)c(Cl)c3)c21 [Formula 34] |  |
